Consider 37 compounds from ChEMBL document CHEMBL4393685, “Synthesis and evaluation of pyrimidoindole analogs in umbilical cord blood ex vivo expansion” (Eur J Med Chem, 2019).

Common to all, as to format: functional
The nature of experiment [1]: Stimulation of ex vivo expansion of human CD34+ cells assessed as CD34+CD38- level incubated for 7 days supplemented with 50% fresh medium containing cytokines every other day by flow cytometry. (Flow cytometry measures light scatter and fluorescence of single cells or particles in a stream.)
Experiment [2] is described as follows: Stimulation of ex vivo expansion of human CD34+ cells assessed as CD34+/CD38- level at 0.01 to 1 uM incubated for 7 days supplemented with 50% fresh medium containing cytokines every other day by flow cytometry relative to control.
Experiment [3] is described as follows: Stimulation of ex vivo expansion of human CD34+ cells assessed as CD34+CD38- level at 0.01 to 1 uM incubated for 7 days supplemented with 50% fresh medium containing cytokines every other day by flow cytometry (reference value: 19.10 +/- 0.35%).
A short description of experiment [4]: Stimulation of ex vivo expansion of human CD34+ cells assessed as CD34postive phenotypic levels after 7 days by carboxyfluorescein succinimidyl ester dye based assay.
Experiment [5] in a line: Ex vivo expansion of human CD34+ cells assessed as increase in CD34+ cell level after 5 to 7 days by […].
The mark [6] stands for this setting: Homo sapiens, 168 h, read-out: EC50.

Molecules are shown by their SMILES.

As a reminder, the EC50 is the midpoint of the concentration-response curve. `Cn1nnc(-c2ccc3[nH]c4nc(Cc5ccccc5)nc(NCCO)c4c3c2)n1`: in experiment [1], the EC50 entry is “Nd(Toxic)”. For the same compound, in experiment [2], the “fold change (FC)” value was 0.99. Also, the Activity in experiment [3] was 18.99%.

Consider `Cn1nnc(-c2ccc3[nH]c4nc(Cc5ccccc5)nc(NCc5ccccc5)c4c3c2)n1`, for which the EC50 entry in experiment [1] was “Nd(Toxic)”. The “fold change (FC)” value in experiment [2] was 1.25. The Activity in experiment [3] is on record as 23.92%.

For the compound `Cn1nnc(-c2ccc3[nH]c4nc(Cc5ccccc5)nc(Nc5cccc(Br)c5)c4c3c2)n1`, the EC50 entry in experiment [1] is on record as “Nd(Toxic)”. Also, in experiment [2], the “fold change (FC)” value is reported as 1.19. In experiment [3], the Activity turned out to be 22.63%.

For `Cc1cc(Cl)ccc1Nc1nc(Cc2ccccc2)nc2[nH]c3ccc(-c4nnn(C)n4)cc3c12`, the EC50 in experiment [1] (setting [6]) was determined as 19.2 nM. Further, in experiment [2], the “fold change (FC)” value is reported as 1.59. Moreover, in experiment [3], the Activity came out at 30.36%.

`Cn1nnc(-c2ccc3c(c2)[nH]c2nc(Cc4ccccc4)nc(NCCc4ccc(O)cc4)c23)n1`: the EC50 result in experiment [1] is listed as “Nd(Toxic)”. In addition, in experiment [2], the “fold change (FC)” value is 0.95. In addition, the Activity in experiment [3] was 18.2%.

On to `COc1ccc(CCNc2nc(Cc3ccccc3)nc3[nH]c4ccc(-c5nnn(C)n5)cc4c23)cc1OC`, for which, in experiment [1] (setting [6]), the EC50 was 65.2 nM. The “fold change (FC)” value in experiment [2] is given as 1.24. For the same compound, the Activity in experiment [3] came out at 23.63%.

Regarding `Cn1nnc(-c2ccc3[nH]c4nc(Cc5ccccc5)nc(N5CCC(CO)CC5)c4c3c2)n1`, the concentration giving a half-maximal response (EC50) in experiment [1] (setting [6]) stood at 359 nM. For the same compound, the “fold change (FC)” value in experiment [2] was 1.06. Also, the Activity in experiment [3] stood at 20.29%.

In the case of `COc1ccc(Nc2nc(Cc3ccccc3)nc3[nH]c4ccc(-c5nnn(C)n5)cc4c23)cc1`, the EC50 entry in experiment [1] was “Nd(Toxic)”. For the same compound, the “fold change (FC)” value in experiment [2] is reported as 1.01. In addition, the Activity in experiment [3] is given as 19.34%.

In the case of `COc1ccc(CCNc2nc(Cc3ccccc3)nc3[nH]c4cc(-c5nnn(C)n5)ccc4c23)cc1`, the EC50 entry in experiment [1] is on record as “Nd(Toxic)”. The “fold change (FC)” value in experiment [2] worked out at 0.74. Further, in experiment [3], the Activity is 14.15%.

As for `Cn1nnc(-c2ccc3[nH]c4nc(Cc5ccccc5)nc(NCCNC(=O)OC(C)(C)C)c4c3c2)n1`, in experiment [1], the EC50 entry is on record as “Nd(Toxic)”. Also, the “fold change (FC)” value in experiment [2] was found to be 0.84. Besides, the Activity in experiment [3] is given as 16.11%.

For the compound `Cn1nnc(-c2ccc3c(c2)[nH]c2nc(Cc4ccccc4)nc(N[C@H]4CC[C@H](O)CC4)c23)n1`, the 50% effective concentration (EC50) in experiment [1] (setting [6]) stood at 473 nM. Moreover, the “fold change (FC)” value in experiment [2] worked out at 2.63. Also, the Activity in experiment [3] came out at 50.15%.

Consider `CC(C)n1cnc2c(NCCc3ccc(O)cc3)nc(-c3csc4ccccc34)nc21`, for which the Activity in experiment [4] is on record as 61%. Moreover, the EC50 in experiment [5] was found to be 120 nM.

`Cn1nnc(-c2ccc3[nH]c4nc(Cc5ccccc5)nc(NCCN(Cc5ccccn5)Cc5ccccn5)c4c3c2)n1`: in experiment [1] (setting [6]), the half-maximal effective concentration (EC50) was 26.2 nM. The “fold change (FC)” value in experiment [2] worked out at 1.27. Moreover, in experiment [3], the Activity is listed as 24.23%.

Regarding `COc1ccc(CCNc2nc(Cc3ccccc3)nc3[nH]c4ccc(-c5nnn(C)n5)cc4c23)cc1`, in experiment [1], the EC50 entry was “Nd(Toxic)”. The “fold change (FC)” value in experiment [2] is reported as 1.15. Further, the Activity in experiment [3] is 21.96%.

For `Cc1ccc(Sc2nc(Cc3ccccc3)nc3[nH]c4ccc(-c5nnn(C)n5)cc4c23)cc1`, the EC50 entry in experiment [1] is recorded as “Nd(Toxic)”. In addition, in experiment [2], the “fold change (FC)” value is recorded as 1.34. Besides, the Activity in experiment [3] is on record as 25.53%.

On to `Cn1nnc(-c2ccc3[nH]c4nc(Cc5ccccc5)nc(NCCNC(=O)c5ccc6ccccc6n5)c4c3c2)n1`, for which the concentration giving a half-maximal response (EC50) result in experiment [1] is listed as “Nd(Toxic)”. Moreover, the “fold change (FC)” value in experiment [2] was 1.09. Moreover, the Activity in experiment [3] amounted to 20.89%.

`Cn1nnc(-c2ccc3c(c2)[nH]c2nc(Cc4ccccc4)nc(NC4CCOCC4)c23)n1`: the EC50 in experiment [1] (setting [6]) came out at 972 nM. Further, in experiment [2], the “fold change (FC)” value is 1.62. Further, the Activity in experiment [3] is 30.87%.

Regarding `Cn1nnc(-c2ccc3[nH]c4nc(Cc5ccccc5)nc(NCCc5c[nH]c6ccccc56)c4c3c2)n1`, in experiment [1] (setting [6]), the EC50 came out at 27.7 nM. Moreover, the “fold change (FC)” value in experiment [2] amounted to 1.14. Moreover, the Activity in experiment [3] is reported as 21.72%.

Consider `Cn1nnc(-c2ccc3[nH]c4nc(Cc5ccccc5)nc(NCCc5ccc(O)cc5)c4c3c2)n1`, for which the EC50 result in experiment [1] is recorded as “Nd(Toxic)”. In addition, the “fold change (FC)” value in experiment [2] is given as 1.08. Besides, the Activity in experiment [3] is given as 20.65%.

`Cn1nnc(-c2ccc3[nH]c4nc(Cc5ccccc5)nc(N5CCNCC5)c4c3c2)n1`: the concentration giving a half-maximal response (EC50) in experiment [1] (setting [6]) worked out at 157 nM. Also, the “fold change (FC)” value in experiment [2] worked out at 1.29. Besides, the Activity in experiment [3] turned out to be 24.69%.

For `Cn1nnc(-c2ccc3[nH]c4nc(Cc5ccccc5)nc(N[C@H]5CC[C@H](N)CC5)c4c3c2)n1`, the half-maximal effective concentration (EC50) entry in experiment [1] was “Nd(Toxic)”. For the same compound, in experiment [2], the “fold change (FC)” value is 0.98. The Activity in experiment [3] came out at 18.72%.

With `Cn1nnc(-c2ccc3[nH]c4nc(Cc5ccccc5)nc(N[C@H]5CC[C@H](O)CC5)c4c3c2)n1`, the EC50 result in experiment [1] is listed as “Nd(Toxic)”. For the same compound, the “fold change (FC)” value in experiment [2] was 0.94. Also, the Activity in experiment [3] is given as 17.9%.

For `Cn1nnc(-c2ccc3c(c2)[nH]c2nc(Cc4ccccc4)nc(NCCc4c[nH]c5ccccc45)c23)n1`, the EC50 entry in experiment [1] is “Nd(Toxic)”. Also, the “fold change (FC)” value in experiment [2] is on record as 1.03. Further, the Activity in experiment [3] is 19.73%.

In the case of `Cn1nnc(-c2ccc3[nH]c4nc(Cc5ccccc5)nc(N5CCOCC5)c4c3c2)n1`, the 50% effective concentration (EC50) in experiment [1] (setting [6]) is 177 nM. Moreover, the “fold change (FC)” value in experiment [2] is given as 0.91. Moreover, the Activity in experiment [3] turned out to be 17.32%.

Take `COc1cc2c(cc1OC)CN(CCNc1nc(Cc3ccccc3)nc3[nH]c4ccc(-c5nnn(C)n5)cc4c13)CC2`: in experiment [1] (setting [6]), the EC50 was 30 nM. In addition, the “fold change (FC)” value in experiment [2] is recorded as 1.27. The Activity in experiment [3] worked out at 21.93%.

Consider `C#Cc1cccc(Nc2nc(Cc3ccccc3)nc3[nH]c4ccc(-c5nnn(C)n5)cc4c23)c1`, for which the concentration giving a half-maximal response (EC50) in experiment [1] (setting [6]) was 56.2 nM. The “fold change (FC)” value in experiment [2] is on record as 1.36. In addition, the Activity in experiment [3] worked out at 25.99%.

Regarding `Cn1nnc(-c2ccc3c(c2)[nH]c2nc(Cc4ccccc4)nc(Nc4ccc(F)c(Cl)c4)c23)n1`, the EC50 entry in experiment [1] was “Nd(Toxic)”. Further, the “fold change (FC)” value in experiment [2] is recorded as 0.83. Besides, in experiment [3], the Activity worked out at 15.79%.

On to `CN(C)c1nc(Cc2ccccc2)nc2[nH]c3cc(-c4nnn(C)n4)ccc3c12`, for which, in experiment [1], the concentration giving a half-maximal response (EC50) entry is recorded as “Nd(Toxic)”. Also, the “fold change (FC)” value in experiment [2] worked out at 0.83. Moreover, the Activity in experiment [3] is 15.91%.

On to `Cc1cc(Cl)ccc1Nc1nc(Cc2ccccc2)nc2[nH]c3cc(-c4nnn(C)n4)ccc3c12`, for which the half-maximal effective concentration (EC50) result in experiment [1] is recorded as “Nd(Toxic)”. In addition, in experiment [2], the “fold change (FC)” value is reported as 0.8. Further, the Activity in experiment [3] is on record as 15.37%.

For the compound `CC(O)CNc1nc(Cc2ccccc2)nc2[nH]c3ccc(-c4nnn(C)n4)cc3c12` (stereo not given), the EC50 in experiment [1] (setting [6]) stood at 167 nM. For the same compound, the “fold change (FC)” value in experiment [2] came to 1.63. Also, in experiment [3], the Activity is recorded as 31.2%.

On to `COc1ccc(CCNc2nc(Cc3ccccc3)nc3[nH]c4cc(-c5nnn(C)n5)ccc4c23)cc1OC`, for which, in experiment [1], the half-maximal effective concentration (EC50) result was “Nd(Toxic)”. For the same compound, the “fold change (FC)” value in experiment [2] is on record as 1.94. In addition, the Activity in experiment [3] was found to be 37.07%.

As for `C#Cc1cccc(Nc2nc(Cc3ccccc3)nc3[nH]c4cc(-c5nnn(C)n5)ccc4c23)c1`, the 50% effective concentration (EC50) result in experiment [1] was “Nd(Toxic)”. Besides, the “fold change (FC)” value in experiment [2] was 0.89. The Activity in experiment [3] stood at 16.98%.

As to `CNC(=O)c1ccc(Nc2nc(Cc3ccccc3)nc3[nH]c4ccc(-c5nnn(C)n5)cc4c23)cc1`, in experiment [1], the concentration giving a half-maximal response (EC50) entry is listed as “Nd(Toxic)”. Also, the “fold change (FC)” value in experiment [2] was found to be 1.14. Further, the Activity in experiment [3] stood at 21.83%.

For `Cn1nnc(-c2ccc3[nH]c4nc(Cc5ccccc5)nc(Nc5ccccc5)c4c3c2)n1`, the EC50 entry in experiment [1] is recorded as “Nd(Toxic)”. The “fold change (FC)” value in experiment [2] came to 0.94. Besides, in experiment [3], the Activity was 18.02%.

Consider `Cn1nnc(-c2ccc3[nH]c4nc(Cc5ccccc5)nc(Nc5ccc(N)cc5)c4c3c2)n1`, for which, in experiment [1], the concentration for a half-maximal effect (EC50) result was “Nd(Toxic)”. In addition, in experiment [2], the “fold change (FC)” value was 1.15. Besides, in experiment [3], the Activity came out at 22.01%.

Consider `Cn1nnc(-c2ccc3[nH]c4nc(Cc5ccccc5)nc(N5CCCC(CO)C5)c4c3c2)n1` (stereo not given), for which the EC50 in experiment [1] (setting [6]) worked out at 59.2 nM. In experiment [2], the “fold change (FC)” value was 1.16. In experiment [3], the Activity is 22.2%.

With `Cn1nnc(-c2ccc3[nH]c4nc(Cc5ccccc5)nc(Nc5ccc(F)c(Cl)c5)c4c3c2)n1`, in experiment [1], the EC50 entry was “Nd(Toxic)”. Further, the “fold change (FC)” value in experiment [2] is reported as 1.08. Moreover, the Activity in experiment [3] is given as 20.65%.
